# Source: patent US20050282242A1, “Screening assays for antimicrobial agents” (priority 2004, published 2005)
# Where two headings read alike, the source gives them in different places.
# Columns and labels:
# [1] = test system: S. aureus Smith mutant containing the S486L mutation in RpoB; assay: Mouse septicemia model, S. aureus Smith RpoB S486L; format: in vivo; conditions: 1.4 × 10^7 CFU/mouse, three days
# Description: (§1) Antimicrobial compounds may also be screened in vivo using a mouse septicemia model. In one particular example, mice were inoculated with an S. aureus Smith strain (Weiss) encoding a mutated microbial polypeptide (e.g., a mutated RpoB). Compounds were administered either IV or orally 30 minutes following inoculation, and observations was continued for three days. Compounds that promoted the survival of inoculated mice were identified as being compounds that are effective against antibiotic-resistant forms of S. aureus.
# (§2) This was accounted for by the increased MIC against these mutant strains compared with the wild-type strain (MICs of 2 μg/ml and 0.004-0.008 μg/ml, respectively).
# [2] = test system: S. aureus Smith containing the RpoB H481Y alteration; assay: Mouse septicemia model, S. aureus Smith RpoB H481Y; format: in vivo; conditions: for Survival (n = 5): mouse, 1.1 × 10^7 CFU/mouse, three days
# Description: as §1, §2
# [3] = test system: S. aureus Smith mutant containing the L466S mutation in RpoB; assay: Mouse septicemia model, S. aureus Smith RpoB L466S; format: in vivo; conditions: 1.1 × 10^7 CFU/mouse, three days
# Description: as §1, §2
# [4] = test system: S. aureus RpoB mutant Q468R; assay: MIC, S. aureus RpoB Q468R mutant; format: cell-based; conditions: Staphylococcus aureus; RpoB mutation Q468R; strain background 1
# Description: (§3) S. aureus is one of the most frequently encountered Gram-positive pathogens. Drug resistance-conferring mutations typically occur within the β subunit of RNA polymerase (RpoB mutations), in the rifampin-binding site. Mutants of S. aureus were isolated by inoculating a culture of S. aureus ATCC strain 29213 (standard susceptibility testing strain) into medium containing rifampin or rifalazil; by inoculating S. aureus ATCC strain 29213 into medium containing chemical derivatives of rifamycin (NCEs); by inoculating S. aureus Smith, a variant optimally adapted to colonizing and causing disease in the mouse septicemia model, into medium containing rifampin; and by using the Ian Chopra collection, the parent strain of which is S. aureus 8325-4 and described previously by Oliva et al. (Antimicrob. Agents Chemother. 45:532-9, 2001). […]
# (§4) Having identified these mutants, the minimum inhibitory concentrations (MIC) of a number of rifamycin derivatives were determined in microtiter trays by inoculating 1-8×10^4 microorganisms in 100 μl of Mueller-Hinton Broth (cation adjusted) containing the indicated compound (Table 3) (National Committee for Clinical Laboratory Standards, Methods for Dilution Antimicrobial Susceptibility Tests for Bacteria That Grow Aerobically-Fourth Edition: Approved Standard M7-A4. NCCLS, Villanova, Pa., 1997). […]
# [5] = test system: S. aureus RpoB mutant D471Y; assay: MIC, S. aureus RpoB D471Y mutant; format: cell-based; conditions: Staphylococcus aureus; RpoB mutation D471Y; strain backgrounds 1, 2, 4
# Description: as §3, §4
# [6] = test system: S. aureus RpoB mutant D471G; assay: MIC, S. aureus RpoB D471G mutant; format: cell-based; conditions: Staphylococcus aureus; RpoB mutation D471G; strain backgrounds 1, 2
# Description: as §3, §4
# [7] = test system: S. aureus RpoB mutant A477D; assay: MIC, S. aureus RpoB A477D mutant; format: cell-based; conditions: Staphylococcus aureus; RpoB mutation A477D; strain backgrounds 1, 4
# Description: as §3, §4
# [8] = test system: S. aureus RpoB mutant R484C; assay: MIC, S. aureus RpoB R484C mutant; format: cell-based; conditions: Staphylococcus aureus; RpoB mutation R484C; strain background 3
# Description: as §3, §4
# [9] = test system: S. aureus RpoB mutant S464P; assay: MIC, S. aureus RpoB S464P mutant; format: cell-based; conditions: Staphylococcus aureus; RpoB mutation S464P; strain backgrounds 1, 2, 4
# Description: as §3, §4
# [10] = test system: S. aureus RpoB mutant H481D; assay: MIC, S. aureus RpoB H481D mutant; format: cell-based; conditions: Staphylococcus aureus; RpoB mutation H481D; strain backgrounds 1, 4
# Description: as §3, §4
# [11] = test system: S. aureus RpoB mutant A477V; assay: MIC, S. aureus RpoB A477V mutant; format: cell-based; conditions: Staphylococcus aureus; RpoB mutation A477V; strain backgrounds 1, 2
# Description: as §3, §4
# [12] = test system: Wild-type parent strains (S. aureus 29213, Smith, W59536, 8325-4); assay: MIC, wild-type parent S. aureus strains; format: cell-based
# Description: S. aureus is one of the most frequently encountered Gram-positive pathogens. Drug resistance-conferring mutations typically occur within the β subunit of RNA polymerase (RpoB mutations), in the rifampin-binding site. Mutants of S. aureus were isolated by inoculating a culture of S. aureus ATCC strain 29213 (standard susceptibility testing strain) into medium containing rifampin or rifalazil; by inoculating S. aureus ATCC strain 29213 into medium containing chemical derivatives of rifamycin (NCEs); by inoculating S. aureus Smith, a variant optimally adapted to colonizing and causing disease in the mouse septicemia model, into medium containing rifampin; and by using the Ian Chopra collection, the parent strain of which is S. aureus 8325-4 and described previously by Oliva et al. (Antimicrob. Agents Chemother. 45:532-9, 2001). Mutants resistant to rifampin, rifalazil, or NCEs were selected either on drug-containing plates or in liquid culture.
# Having identified these mutants, the minimum inhibitory concentrations (MIC) of a number of rifamycin derivatives were determined in microtiter trays by inoculating 1-8×10^4 microorganisms in 100 μl of Mueller-Hinton Broth (cation adjusted) containing the indicated compound (Table 3) (National Committee for Clinical Laboratory Standards, Methods for Dilution Antimicrobial Susceptibility Tests for Bacteria That Grow Aerobically-Fourth Edition: Approved Standard M7-A4. NCCLS, Villanova, Pa., 1997). These cultures were incubated for 16-20 hours at 35° C. Based on our results, the most important mutants (conferring the strongest resistance) were identified for more extensive testing of NCEs. These mutants were H481Y, Q468K, S486L, D471Y, S464P, A477D, and H481D. […] An exception to the uniformity of the measure of resistance is provided by the mutants D471Y and S464P, which together have lower MICs for some of the compounds compared to the rest. […]
# [13] = test system: S. aureus RpoB mutant R484H; assay: MIC, S. aureus RpoB R484H mutant; format: cell-based; conditions: Staphylococcus aureus; RpoB mutation R484H; strain backgrounds 1, 3
# Description: as §3, §4
# [14] = test system: S. aureus RpoB mutant D471V; assay: MIC, S. aureus RpoB D471V mutant; format: cell-based; conditions: Staphylococcus aureus; RpoB mutation D471V; strain background 3
# Description: as §3, §4
# [15] = test system: S. aureus RpoB mutant Q468K; assay: MIC, S. aureus RpoB Q468K mutant; format: cell-based; conditions: Staphylococcus aureus; RpoB mutation Q468K; strain background 1
# Description: as §3, §4
# [16] = test system: S. aureus RpoB mutant Q137L; assay: MIC, S. aureus RpoB Q137L mutant; format: cell-based; conditions: Staphylococcus aureus; RpoB mutation Q137L; strain backgrounds 1, 4
# Description: as §3, §4
# [17] = test system: S. aureus RpoB mutant H481R; assay: MIC, S. aureus RpoB H481R mutant; format: cell-based; conditions: Staphylococcus aureus; RpoB mutation H481R; strain background 3
# Description: as §3, §4
# [18] = test system: S. aureus RpoB mutant S486L; assay: MIC, S. aureus RpoB S486L mutant; format: cell-based; conditions: Staphylococcus aureus; RpoB mutation S486L; strain backgrounds 1, 2, 4
# Description: as §3, §4
# [19] = test system: S. aureus RpoB mutant L466S; assay: MIC, S. aureus RpoB L466S mutant; format: cell-based; conditions: Staphylococcus aureus; RpoB mutation L466S; strain backgrounds 1, 2, 4
# Description: as §3, §4
# [20] = test system: S. aureus RpoB mutant I527P; assay: MIC, S. aureus RpoB I527P mutant; format: cell-based; conditions: Staphylococcus aureus; RpoB mutation I527P; strain background 1
# Description: as §3, §4
# [21] = test system: S. aureus RpoB mutant H481N; assay: MIC, S. aureus RpoB H481N mutant; format: cell-based; conditions: Staphylococcus aureus; RpoB mutation H481N; strain backgrounds 1, 4
# Description: as §3, §4
# [22] = test system: S. aureus RpoB mutant R484S; assay: MIC, S. aureus RpoB R484S mutant; format: cell-based; conditions: Staphylococcus aureus; RpoB mutation R484S; strain background 1
# Description: as §3, §4
# S. aureus 29213 = assay: Mutant score test (resistance development on agar); format: cell-based; conditions: 10^9 cells of S. aureus 29213 on agar plate with 1 μg/ml compound
# Description: A further confirmation of the validity of MIC testing of the mutant panel was provided by our mutant score test. Using this strategy, compounds were individually tested for resistance development by inoculating 10^9 cells of S. aureus 29213, a standard susceptibility strain, onto a large agar plate (150 mm) containing Mueller Hinton Agar as well as 1 μg/ml of the test compound. The presence of rifalazil or rifampin in these plates generally allowed for the growth of ˜50 colonies, all colonies representing a mutant sub-population or populations in the culture. […] The MICs of NCEs on agar plates were lower than MICs determined by growth in liquid broth. […] This correlation provided additional confidence in the value and ranking of compounds by MIC testing of the mutant panel, as compounds having a score of 2 have tracked with strong activity in MIC testing against resistant strains, as indicated in Table 3.
# [23] = test system: S. aureus RpoB mutant I527M; assay: MIC, S. aureus RpoB I527M mutant; format: cell-based; conditions: Staphylococcus aureus; RpoB mutation I527M; strain background 1
# Description: as §3, §4
# [24] = test system: S. aureus RpoB mutant D471E; assay: MIC, S. aureus RpoB D471E mutant; format: cell-based; conditions: Staphylococcus aureus; RpoB mutation D471E; strain background 4
# Description: as §3, §4
# [25] = test system: S. aureus RpoB mutant H481Y; assay: MIC, S. aureus RpoB H481Y mutant; format: cell-based; conditions: Staphylococcus aureus; RpoB mutation H481Y; strain backgrounds 1, 2, 3
# Description: as §3, §4
Compound,Survival (n = 5) ([1]; IV 6.0 mg/kg),Survival (n = 5) ([2]; IV 6.0 mg/kg),Survival (n = 5) ([3]; IV 6.0 mg/kg),MIC [4] [µg/mL],MIC [5] [µg/mL],MIC [6] [µg/mL],MIC [7] [µg/mL],MIC [8] [µg/mL],MIC [9] [µg/mL],MIC [10] [µg/mL],MIC [11] [µg/mL],MIC [13] [µg/mL],MIC [14] [µg/mL],MIC [15] [µg/mL],MIC [16] [µg/mL],MIC [17] [µg/mL],MIC [18] [µg/mL],MIC [19] [µg/mL],MIC [20] [µg/mL],MIC [21] [µg/mL],further results
O=C(O)c1cn(C2CC2)c2cc(N3CCNCC3)c(F)cc2c1=O [Ciprofloxacin],5,4,5,–,–,–,–,–,–,–,–,–,–,–,–,–,–,–,–,–,Survival (n = 5) ([1]; IV 0.6 mg/kg): 1; Survival (n = 5) ([1]; IV 2.0 mg/kg): 3; Survival (n = 5) ([2]; IV 0.6 mg/kg): 2; Survival (n = 5) ([2]; IV 2.0 mg/kg): 5; Survival (n = 5) ([3]; IV 0.6 mg/kg): 1; Survival (n = 5) ([3]; IV 2.0 mg/kg): 4
"CO[C@H]1/C=C/O[C@@]2(C)Oc3c(C)c(O)c4c(O)c(c(/C=N/N5CCN(C)CC5)c(O)c4c3C2=O)NC(=O)/C(C)=C\C=C\[C@H](C)[C@H](O)[C@@H](C)[C@@H](O)[C@@H](C)[C@H](OC(C)=O)[C@@H]1C [Rifampicin, rifampin]",0,0,0,> 8,1,> 8,> 8,2,> 8,> 8,1,> 8,> 8,> 8,0.25,> 8,> 8,0.25,4,2,"Survival (n = 5) ([1]; IV 20.0 mg/kg): 1; efficacy against mutant strains in vivo ([2]; mouse septicemia model, mutant strains in general): failed to be effective; Survival (n = 5) ([2]; IV 20.0 mg/kg): 0; Survival (n = 5) ([2]; oral 200.0 mg/kg): 0; MIC ([12]; Staphylococcus aureus, Mutation None: wild-type parent strains, read-out: MIC): 0.015 µg/mL; MIC [22]: 8 µg/mL; growth of mutant colonies on plate (S. aureus 29213): ~50 colonies; MIC [23]: 0.25 µg/mL; MIC [24]: 0.25 µg/mL; MIC [25]: > 8 µg/mL; Survival (n = 5) ([3]; IV 20.0 mg/kg): 0"
"CO[C@H]1/C=C/O[C@@]2(C)Oc3c(C)c(O)c4c(=O)c(c5oc6cc(N7CCN(CC(C)C)CC7)cc(O)c6nc-5c4c3C2=O)NC(=O)/C(C)=C\C=C\[C@H](C)[C@H](O)[C@@H](C)[C@@H](O)[C@@H](C)[C@H](OC(C)=O)[C@@H]1C [Rfz, rifalazil]",–,–,–,> 8,0.25,> 8,2 to 4,0.5,1,> 8,0.063,8,2,> 8,< 0.031,> 8,> 8,0.016,1,0.125,"MIC ([12]; Mutation None: wild-type parent strains): 0.015 µg/mL; MIC ([12]; Staphylococcus aureus, strain not stated, matches wild-type value of Table 2, read-out: MIC): 0.015 µg/mL; MIC [22]: 0.5 µg/mL; growth of mutant colonies on plate (S. aureus 29213): ~50 colonies; MIC [23]: 0.063 µg/mL; MIC [24]: < 0.031 µg/mL; MIC [25]: > 8 µg/mL"
